This assay deals with Mycobacterium tuberculosis. Nature of the assay: Antituberculosis activity against rifampicin-resistant Mycobacterium tuberculosis H37Rv assessed as growth inhibition after 72 hrs by liquid culture assay. Type of assay: functional, organism-based.

With `O=C1/C(=C/c2ccccc2F)CNC/C1=C\c1ccccc1F`, the IC50 came out at 20 µM.
Take `CN1C/C(=C\c2ccccn2)C(=O)/C(=C/c2ccccn2)C1`: the IC50 was found to be 7 µM.

For orientation: IC50 means the midpoint of a concentration-inhibition curve.

Source of the values: ChEMBL document CHEMBL3407440, “Monocarbonyl analogs of curcumin inhibit growth of antibiotic sensitive and resistant strains of Mycobacterium tuberculosis” (Eur J Med Chem, 2015).
